Measurements reported in patent US6995262B1, “Use of acylsulfonamido-substituted polymethine dyes as fluorescene dyes and/or markers” (Bayer CropScience AG, priority 1999, dated 2006).
Marks after values point to notes of the source that are not given here.

Columns and labels:
Assay type in all cases: physicochemical
[1] = Extinction coefficient determined assuming Beer's law; details: Beer's law assumed
Experimental: Determination of the Extinction Coefficient The extinction coefficient was determined assuming that Beer's law applies.

[2] = Relative quantum yield of dye-protein conjugates, determined relative to Cy5; details: protein conjugates at similar molar dye/protein ratios, protein HSA
Experimental: The protein used was HSA (Human Serum Albumin).
Determination of the Quantum Yield
The quantum yield was determined relative to Cy5
For labeling, the crude product (1 aliquot) is dissolved in 1 ml of DMF. 50 μl of this solution are pipetted to 1.5 mL (=1 mg) of anti-HSA solution in carbonate buffer pH 9.2. The reaction solution is stirred at RT under the exclusion of light for 2 hours.
Using gel permeation chromatography over a Sephadex G25 column, the conjugate is then separated from unbound dye. The elution buffer used is PBS, pH 7.4.
Protein conjugates of other dyes, which are listed in Table 1, were prepared in an analogous manner.

[3] = Aggregate formation: ratio of absorption maxima of monomer and aggregate at increasing salt concentration; details: for characteristics with respect to aggregate formation: with increasing salt concentration
Excerpt: The intensity of the absorption in the absorption maximum of the monomer is a relative measure for the concentration of the monomer in the solution, the same also applies to the concentration of the aggregate, this can be correlated to the intensity of the absorption in the absorption maximum of the aggregate, which is shifted hypsochronically compared to the monomer. […] The increasing salt concentration causes an aggregate formation.

[4] = Photostability: dye solutions exposed to daylight, reduction of absorption over time; details: after 30 min, starting absorption 1.4 to 1.6 O.D.
Experimental: The photostability was determined by exposing dye solutions to daylight. The absorption of the solutions varied between 1.4 and 1.6 O.D. The reduction of the absorption over time is a measure for the photostability of the dyes. These conditions were chosen since the handling of the dyes, too, includes manual process steps during which the dyes are exposed to daylight. In the case of CY5, it is clearly noticeable that, even after 30 min, the absorption has decreased by 12%. This is not the case for the dyes according to the invention, and the latter are thus also more user-friendly, by maintaining a stable absorption.

Question: With `CC1(C)C(/C=C2\C(=O)C(/C=C3/N(CCCCCC(=O)O)c4ccc(S(=O)(=O)[O-])cc4C3(C)C)=C2O)=[N+](CC(=O)NS(C)(=O)=O)c2ccc(S(=O)(=O)O)cc21` [J] as the compound, how does the Extinction coefficient [1] read?
Answer: 240 000 mol-1*cm^2*

Question: What about the “rel. Q.Y.” value [2] of the same compound?
Answer: 1.36

Question: What about the Absorption monomer/absorption dimer ([3]; 2.0 M NaCl) of the same compound?
Answer: 4.35

Question: What about the Absorption monomer/absorption dimer ([3]; 3.8 M NaCl) of the same compound?
Answer: 4.40

Question: And the Absorption monomer/absorption dimer ([3]; Water)?
Answer: 4.40

Question: And the “aggregate formation compared to CY5” value ([3]; in words, from Table 2)?
Answer: considerably lower aggregate formation

Question: And the “characteristics with respect to aggregate formation” value ([3]; in words)?
Answer: stable characteristics

Question: For `CCN1/C(=C/C=C/C=C/C2=[N+](CCCCCC(=O)O)c3ccc(S(=O)(=O)O)cc3C2(C)C)C(C)(C)c2cc(S(=O)(=O)[O-])ccc21` [CY5, reference compound], which decrease of absorption [4] is on record?
Answer: 12%

Question: And the Absorption monomer/absorption dimer ([3]; 2.0 M NaCl)?
Answer: 3.18

Question: What about the Absorption monomer/absorption dimer ([3]; 3.8 M NaCl) of the same compound?
Answer: 3.19

Question: What about the Absorption monomer/absorption dimer ([3]; Water) of the same compound?
Answer: 3.12

Question: For `CC1(C)C(/C=C2\C(=O)C(/C=C3/N(CCCCCC(=O)O)c4ccccc4C3(C)C)=C2O)=[N+](CC(=O)NS(C)(=O)=O)c2ccc(S(=O)(=O)[O-])cc21` [F], which Extinction coefficient [1] is on record?
Answer: 420 000 mol-1*cm^2*

Question: What about the “rel. Q.Y.” value [2] of the same compound?
Answer: 1.35

Question: What about the Absorption monomer/absorption dimer ([3]; 2.0 M NaCl) of the same compound?
Answer: 2.81

Question: What about the Absorption monomer/absorption dimer ([3]; 3.8 M NaCl) of the same compound?
Answer: 2.81

Question: What about the Absorption monomer/absorption dimer ([3]; Water) of the same compound?
Answer: 2.89

Question: And the “characteristics with respect to aggregate formation” value ([3]; in words)?
Answer: stable characteristics
